{"source": "patent US8518997B2", "about": "“4-(phenoxyalkyl)thio)-phenoxyacetic acids and analogs” (Janssen Pharmaceutica N.V., priority 2003, dated 2013)", "note": "Where “and” joins values, the source holds several entries; their conditions need not be identical. Identical values can stand only once."}
{"target": "T1, PPAR delta (Homo sapiens, UniProt Q03181)", "T1 sequence (Q03181 171-441 limits assumed)": "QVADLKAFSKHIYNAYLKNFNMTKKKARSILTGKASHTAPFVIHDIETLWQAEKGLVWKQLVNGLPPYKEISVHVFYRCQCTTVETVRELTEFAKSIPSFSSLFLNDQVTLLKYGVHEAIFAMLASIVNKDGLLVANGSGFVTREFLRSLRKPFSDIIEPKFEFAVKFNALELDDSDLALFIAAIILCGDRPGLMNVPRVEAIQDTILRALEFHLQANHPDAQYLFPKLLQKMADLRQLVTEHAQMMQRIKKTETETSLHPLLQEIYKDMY", "assay": "Transfection assay for PPAR receptors (PPAR-Gal4 / Gal4-Luciferase reporter in HEK293 cells)", "assay_type": "cell-based", "conditions": "HEK293 cells co-transfected with PPAR-Gal4 (δ) receptor and Gal4-Luciferase reporter, 24 hours; multiple EC50's = multiple measurements; Table 2", "procedure": "(§1) Transfection Assay Method for PPAR Receptors\n(§2) HEK293 cells were grown in DMEM/F-12 Media supplemented with 10% FBS and glutamine (GIBCOBRL). The cells were co-transfected with DNA for PPAR-Gal4 (PPARα, γ or δ) receptor and Gal4-Luciferase Reporter using the DMRIE-C Reagent. On the following day, the medium was replaced with 5% Charcoal treated FBS growth medium. After six hours, cells were trypsinized and seeded at a density of 50,000 cell/well into 96 well plates and incubated overnight at 37° C. in a 5% CO2 incubator. Cells were then treated with test compounds or vehicle and incubated for 24 hours at 37° C. in a 5% CO2 incubator. Luciferase activity was assayed using the Steady-Glo Luciferase Assay Kit from Promega. […] Steady-Glo Luciferase Assay Kit was purchased from Promega Part# E254B."}
{"smiles": "COCOC(COc1ccc(C(F)(F)F)cc1)CSc1ccc(OCC(=O)O)c(C)c1", "note": "(centres unmarked) [Compound 24, {4-[2-Methoxymethoxy-3-(4-trifluoromethyl-phenoxy)-propylsulfanyl]-2-methyl-phenoxy}-acetic acid]", "EC50": "6.3 nM and 6.6 nM (2×) and 5.1 nM and 6.4 nM and 3.7 nM"}
{"smiles": "Cc1cc(SCC(C)COc2ccc(C(F)(F)F)cc2)ccc1OCC(=O)O", "note": "(centres unmarked) [Compound 1, {2-Methyl-4-[2-methyl-3-(4-trifluoromethyl-phenoxy)-propylsulfanyl]-phenoxy}-acetic acid]", "EC50": "9.2 nM and 5.6 nM"}
{"smiles": "CCC(COc1ccc(C(F)(F)F)cc1)CSc1ccc(OCC(=O)O)c(C)c1", "note": "(centres unmarked) [Compound 3, {2-Methyl-4-[2-(4-trifluoromethyl-phenoxymethyl)-butylsulfanyl]-phenoxy}-acetic acid]", "EC50": "0.08 nM and 0.04 nM"}
{"smiles": "Cc1cc(OCC(O)COc2ccc(C(F)(F)F)cc2)ccc1OCC(=O)O", "note": "(centres unmarked) [Compound 45]", "EC50": "618 nM"}
{"smiles": "COC(COc1ccc(C(F)(F)F)cc1)CSc1ccc(OCC(=O)O)c(C)c1", "note": "(centres unmarked) [Compound 14, {4-[2-Methoxy-3-(4-trifluoromethyl-phenoxy)-propylsulfanyl]-2-methyl-phenoxy}-acetic acid]", "EC50": "16.2 nM and 21.5 nM"}
{"smiles": "CCOC(CC(COc1ccc(C(F)(F)F)cc1)CSc1ccc(OCC(=O)O)c(C)c1)OCC", "note": "(centres unmarked) [Compound 36, {4-[4,4-Diethoxy-2-(4-trifluoromethyl-phenoxymethyl)-butylsulfanyl]-2-methyl-phenoxy}-acetic acid]", "EC50": "52.9 nM"}
{"smiles": "Cc1ccc(OCCCSc2ccc(OCC(=O)O)c(C)c2)cc1", "note": "[Compound 8]", "EC50": "215 nM"}
{"smiles": "CCOC(/C=C/c1ccc(C(F)(F)F)cc1)CSc1ccc(OCC(=O)O)c(C)c1", "note": "(centres unmarked) [Compound 42, {4-[2-Ethoxy-4-(4-trifluoromethyl-phenyl)-but-3-enylsulfanyl]-2-methyl-phenoxy}-acetic Acid]", "EC50": "8 nM and 7.9 nM"}
{"smiles": "CCC(COc1ccc(C(F)(F)F)cc1)CSc1ccc(OCC(=O)O)cc1", "note": "(centres unmarked) [Compound 4, {4-[2-(4-Trifluoromethyl-phenoxymethyl)-butylsulfanyl]-phenoxy}-acetic acid]", "EC50": "29.6 nM"}
{"smiles": "CCCOC(COc1ccc(C(F)(F)F)cc1)CSc1ccc(OCC(=O)O)c(C)c1", "note": "(centres unmarked) [Compound 18, {2-Methyl-4-[2-propoxy-3-(4-trifluoromethyl-phenoxy)-propylsulfanyl]-phenoxy}-acetic acid]", "EC50": "4.3 nM"}
{"smiles": "Cc1ccc(OCC(O)CSc2ccc(OCC(=O)O)c(C)c2)cc1", "note": "(centres unmarked) [Compound 31]", "EC50": "> 1000 nM"}
{"smiles": "CCOC(COc1ccc(C(F)(F)F)cc1)CSc1ccc(CC(=O)O)cc1Cl", "note": "(centres unmarked) [Compound 32, {3-Chloro-4-[2-ethoxy-3-(4-trifluoromethyl-phenoxy)-propylsulfanyl]-phenyl}-acetic acid]", "EC50": "11.2 nM"}
{"smiles": "CCC(COc1ccc(C(F)(F)F)cc1)CSc1ccc(CC(=O)O)cc1Cl", "note": "(centres unmarked) [Compound 9, {3-Chloro-4-[2-(4-trifluoromethyl-phenoxymethyl)-butylsulfanyl]-phenyl}-acetic acid]", "EC50": "16.6 nM and 18.5 nM"}
{"smiles": "CCO[C@@H](COc1ccc(C(F)(F)F)cc1)CSc1ccc(OCC(=O)O)c(C)c1", "note": "[Compound 16, (S)-{4-[2-Ethoxy-3-(4-trifluoromethyl-phenoxy)-propylsulfanyl]-2-methyl-phenoxy}-acetic acid]", "EC50": "22.4 nM and 27.5 nM"}
{"smiles": "CSCOC(COc1ccc(C(F)(F)F)cc1)CSc1ccc(OCC(=O)O)c(C)c1", "note": "(centres unmarked) [Compound 25, {2-Methyl-4-[2-methylsulfanylmethoxy-3-(4-trifluoromethyl-phenoxy)-propylsulfanyl]-phenoxy}-acetic acid]", "EC50": "25.2 nM and 8.9 nM and 8.8 nM"}
{"smiles": "Cc1cc(SCC(O)COc2ccc(C(F)(F)F)cc2)ccc1OCC(=O)O", "note": "(centres unmarked) [Compound 13]", "EC50": "79 nM"}
{"smiles": "CCO[C@H](COc1ccc(C(F)(F)F)cc1)CSc1ccc(OCC(=O)O)c(C)c1", "note": "[Compound 15, (R)-{4-[2-Ethoxy-3-(4-trifluoromethyl-phenoxy)-propylsulfanyl]-2-methyl-phenoxy}-acetic acid]", "EC50": "0.76 nM and 0.56 nM and 0.88 nM and 3.4 nM and 5 nM and 1.1 nM"}
{"smiles": "Cc1cc(SCC/C=C/c2ccc(C(F)(F)F)cc2)ccc1OCC(=O)O", "note": "[Compound 40, {2-Methyl-4-[4-(4-trifluoromethyl-phenyl)-but-3-enylsulfanyl]-phenoxy}-acetic acid]", "EC50": "39.3 nM and 43.7 nM"}
{"smiles": "C=CCOC(COc1ccc(C(F)(F)F)cc1)CSc1ccc(OCC(=O)O)c(C)c1", "note": "(centres unmarked) [Compound 21, {4-[2-Allyloxy-3-(4-trifluoromethyl-phenoxy)-propylsulfanyl]-2-methyl-phenoxy}-acetic acid]", "EC50": "3.7 nM and 4.2 nM"}
{"smiles": "CCCC(=O)c1ccc(OC(COc2ccc(C(F)(F)F)cc2)CSc2ccc(OCC(=O)O)c(C)c2)cc1", "note": "(centres unmarked) [Compound 30, {4-[2-(4-Butyryl-phenoxy)-3-(4-trifluoromethyl-phenoxy)-propylsulfanyl]-2-methyl-phenoxy}-acetic acid]", "EC50": "23.9 nM"}
{"smiles": "Cc1cc(SCC(CCC#N)COc2ccc(C(F)(F)F)cc2)ccc1OCC(=O)O", "note": "(centres unmarked) [Compound 11, {4-[4-Cyano-2-(4-trifluoromethyl-phenoxymethyl)-butylsulfanyl]-2-methyl-phenoxy}-acetic acid]", "EC50": "5.7 nM"}
{"smiles": "Cc1cc(SCC(CC#N)COc2ccc(C(F)(F)F)cc2)ccc1OCC(=O)O", "note": "(centres unmarked) [Compound 10, {4-[3-Cyano-2-(4-trifluoromethyl-phenoxymethyl)-propylsulfanyl]-2-methyl-phenoxy}-acetic acid]", "EC50": "29 nM and 56 nM"}
{"smiles": "COCO[C@@H](COc1ccc(C(F)(F)F)cc1)CSc1ccc(OCC(=O)O)c(C)c1", "note": "[Compound 23, (S)-{4-[2-Methoxymethoxy-3-(4-trifluoromethyl-phenoxy)-propylsulfanyl]-2-methyl-phenoxy}-acetic acid]", "EC50": "70 nM"}
{"smiles": "CCOCC(COc1ccc(C(F)(F)F)cc1)CSc1ccc(OCC(=O)O)c(C)c1", "note": "(centres unmarked) [Compound 33, {4-[2-Ethoxymethyl-3-(4-trifluoromethyl-phenoxy)-propylsulfanyl]-2-methyl-phenoxy}-acetic acid]", "EC50": "4.7 nM and 4.6 nM"}
{"smiles": "Cc1cc(SC[C@@H](COc2ccc(C(F)(F)F)cc2)OCc2ccc(Cl)s2)ccc1OCC(=O)O", "note": "[Compound 27, {4-[2-(5-Chloro-thiophen-2-ylmethoxy)-3-(4-trifluoromethyl-phenoxy)-propylsulfanyl]-2-methyl-phenoxy}-acetic acid]", "EC50": "11.9 nM and 18.5 nM"}
{"smiles": "CCOCCC(COc1ccc(C(F)(F)F)cc1)CSc1ccc(OCC(=O)O)c(C)c1", "note": "(centres unmarked) [Compound 37, {4-[4-Ethoxy-2-(4-trifluoromethyl-phenoxymethyl)-butylsulfanyl]-2-methyl-phenoxy}-acetic acid]", "EC50": "1.9 nM and 2.9 nM"}
{"smiles": "CCOC(COc1ccc(C(F)(F)F)cc1)CSc1ccc(OCC(=O)O)c(C)c1", "note": "(centres unmarked) [Compound 17, {4-[2-Ethoxy-3-(4-trifluoromethyl-phenoxy)-propylsulfanyl]-2-methyl-phenoxy}-acetic acid]", "EC50": "4.2 nM and 3.2 nM and 1.5 nM and 4.5 nM and 0.69 nM and 2.7 nM"}
{"smiles": "COCCC(COc1ccc(C(F)(F)F)cc1)CSc1ccc(OCC(=O)O)c(C)c1", "note": "(centres unmarked) [Compound 35, {4-[4-Methoxy-2-(4-trifluoromethyl-phenoxymethyl)-butylsulfanyl]-2-methyl-phenoxy}-acetic acid]", "EC50": "2.3 nM and 4.1 nM"}
{"smiles": "Cc1cc(SCC(O)/C=C/c2ccc(C(F)(F)F)cc2)ccc1OCC(=O)O", "note": "(centres unmarked) [Compound 41]", "EC50": "144 nM"}
{"smiles": "CCCCCC(COc1ccc(C(F)(F)F)cc1)CSc1ccc(OCC(=O)O)c(C)c1", "note": "(centres unmarked) [Compound 6, {2-Methyl-4-[2-(4-trifluoromethyl-phenoxymethyl)-heptylsulfanyl]-phenoxy}-acetic acid]", "EC50": "3.3 nM (2×) and 3.7 nM"}
{"smiles": "Cc1cc(SCC(COc2ccc(C(F)(F)F)cc2)OCC(=O)O)ccc1OCC(=O)O", "note": "(centres unmarked) [Compound 26, {4-[2-Carboxymethoxy-3-(4-trifluoromethyl-phenoxy)-propylsulfanyl]-2-methyl-phenoxy}-acetic acid]", "EC50": "126 nM"}
{"smiles": "Cc1cc(SCC(C/C=C/C#N)COc2ccc(C(F)(F)F)cc2)ccc1OCC(=O)O", "note": "(centres unmarked) [Compound 12, {4-[5-Cyano-2-(4-trifluoromethyl-phenoxymethyl)-pent-4-enylsulfanyl]-2-methyl-phenoxy}-acetic acid]", "EC50": "19.9 nM"}
{"smiles": "CCOC(COc1ccc(C(F)(F)F)cc1)COc1ccc(OCC(=O)O)c(C)c1", "note": "(centres unmarked) [Compound 44, {-4-[2-Ethoxy-3-(4-trifluoromethyl-phenoxy)-propoxy]-2-methyl-phenoxy}-acetic acid]", "EC50": "24.3 nM"}
{"smiles": "CCCCOC(COc1ccc(C(F)(F)F)cc1)CSc1ccc(OCC(=O)O)c(C)c1", "note": "(centres unmarked) [Compound 19, {4-[2-Butoxy-3-(4-trifluoromethyl-phenoxy)-propylsulfanyl]-2-methyl-phenoxy}-acetic acid]", "EC50": "7.5 nM and 6.5 nM"}
{"smiles": "Cc1cc(SC[C@H](O)COc2ccc(C(F)(F)F)cc2)ccc1OCC(=O)O", "note": "[Compound 43, Acetic acid, {4-(2R)-2-hydroxy-3-(4-trifluoromethyl-phenoxy)-propylsulfanyl}-2-methyl-phenoxyy]", "EC50": "43.2 nM"}
{"smiles": "Cc1cc(SCC(C)Oc2ccc(C(F)(F)F)cc2)ccc1OCC(=O)O", "note": "(centres unmarked) [Compound 7, {2-Methyl-4-[2-(4-trifluoromethyl-phenoxy)-propylsulfanyl]-phenoxy}-acetic acid]", "EC50": "211 nM"}
{"smiles": "CSCOC(CCc1ccc(C(F)(F)F)cc1)CSc1ccc(OCC(=O)O)c(C)c1", "note": "(centres unmarked) [Compound 39, {2-Methyl-4-[2-methylsulfanylmethoxy-4-(4-trifluoromethyl-phenyl)-butylsulfanyl]-phenoxy}-acetic Acid]", "EC50": "12.5 nM and 17.9 nM"}
{"target": "T1, PPAR delta", "assay": "Transfection assay for PPAR receptors (PPAR-Gal4 / Gal4-Luciferase reporter in HEK293 cells)", "assay_type": "cell-based", "conditions": "Table 3 compounds of interest, tested likewise", "procedure": "as §1, §2", "units": {"EC50": "nM"}}
{"smiles": "Cc1cc(SCCCOc2ccc(C(F)(F)F)cc2)ccc1OCC(=O)O", "note": "[{2-Methyl-4-[3-(4-trifluoromethyl-phenoxy)-propylsulfanyl]-phenoxy}-acetic acid]", "EC50": 17.6}
